Entries after “also recorded” stand apart in the source; their conditions may differ. Read-outs that look alike come from different tables or passages of the source.
What was measured:
HepG2 [1] = test: Antiproliferative activity, crystal violet assay; assay type: cell-based; settings: Homo sapiens, HepG2, 48 h, mean ± SD
Procedure: (§3) Human hepatocellular carcinoma cell lines HepG2 (ATCC number: HB-8065) and HuH-7 (JCRB number: JCRB0403) were cultured at Roswell Park Memorial Institute (RPMI) 1640 Medium (Gibco, Thermo Fisher Scientific, Waltham, MA, USA) supplemented with 10% fetal bovine serum, 2 mM L-glutamine (Corning, Glendale, CA, USA), 100 U/mL penicillin and 100 µg/mL streptomycin (Bio&SELL, Feucht, Germany) at 37 °C, 5% CO2 in a humidified atmosphere in an incubator.
(§4) Treatment-induced antiproliferative effects measured as a decrease in cell number were assessed by crystal violet (N-hexamethylpararosaniline from Sigma-Aldrich, Darmstadt, Germany) staining as described before [71, 88]. In brief, HepG2 and HuH-7 cells were seeded in 96-well plates and allowed to adhere to the bottom of the wells and grow for 72 h in an incubator (37 °C, 5% CO2, humidified atmosphere). Afterwards, the cells were treated with rising concentrations of the chalcones, sorafenib and 17-AAG. After 24 h, 48 h and 72 h, respectively, the cells were fixed using 1% glutaraldehyde and stained for 30 min with 0.1% crystal violet. The excess unbound dye was removed by rinsing with water for 30 min. Cells were then lysed by incubation with 0.2% Triton X-100 (Sigma-Aldrich, Darmstadt, Germany) overnight dissolving the bound dye. The extinction of crystal violet was measured at 570 nm using ELISA readers (Dynex Technologies, Denkendorf, Germany; GloMax® Discover Microplate Reader Promega, Madison, WI, USA). IC50 values are given as means ± SD of a minimum of three independent experiments performed in triplicates and more.

HuH-7 [2] = test: Antiproliferative activity, crystal violet assay; assay type: cell-based; settings: Homo sapiens, Huh-7, 48 h, mean ± SD
Procedure: as §3, §4

[3] = test system: T. gondii tachyzoites (RH strain); test: Toxoplasma gondii testing assay; assay type: cell-based; settings: for IC50: Toxoplasma gondii, T. gondii parasites cultivated in Vero cells; for SI selectivity index (Vero/T. gondii): ratio Vero IC50 / T. gondii IC50
Procedure: Cells of the Vero cell line (ATCC® CCL81™, Manassas, VA, USA) were used to cultivate T. gondii tachyzoites (RH strain, a gift from Dr. Saeed El-Ashram, State Key Laboratory for Agrobiotechnology, China Agricultural University, Beijing, China). Effects of test compounds on T. gondii growth were investigated as published previously and expressed as IC50 values, which were calculated from three independent experiments [63, 89].

Vero monkey kidney cells = test: Vero cell cytotoxicity (MTT assay); assay type: cell-based; settings: Primates
Procedure: (§5) Cytotoxicity to Vero cells or murine macrophages was evaluated using the MTT assay according to previously published articles and expressed as IC50 values which were determined from three independent experiments [63, 91].

L. major promastigotes = test: Leishmania major testing assay, promastigotes; assay type: cell-based; settings: for SI (Promastigotes) selectivity index (macrophages/L. major): ratio macrophages IC50 / promastigotes IC50
Procedure: (§6) Promastigotes (obtained from a patient in 2016) and amastigotes of L. major were applied for drug testing according to previously published methods [63, 90]. IC50 values were calculated from three independent experiments.

L. major amastigotes = test: Leishmania major testing assay, amastigotes; assay type: cell-based; settings: for IC50: Leishmania major; for SI (Amastigotes) selectivity index (macrophages/L. major): ratio macrophages IC50 / amastigotes IC50
Procedure: as §6

murine macrophages = test: Macrophage cytotoxicity (MTT assay); assay type: cell-based; settings: Mus musculus
Procedure: as §5

HepG2 [4] = test: Colony formation assay; assay type: cell-based, Human; settings: HepG2, 14 days of growth under treatment
Procedure: (§7) Long-term effects of drug treatment on proliferation and clonogenicity were assessed by colony formation assays. HCC cell lines were seeded at 1000 cells/well (HepG2) and 200 cells/well (HuH-7) in 6-well plates and allowed to adhere overnight. […] Untreated cells served as controls. After 14 d, the cells were washed with PBS, fixed with 4% formaldehyde for 1 h and stained with 0.5% crystal violet for 3 min. Excess crystal violet dye was removed by gently rinsing with water. Representative images were taken and stained colonies were counted. A colony was defined as a cell aggregate of 50 or more cells. n = 4 independent experiments were performed and significance was tested by one-way ANOVA assays.

HuH-7 [5] = test: Colony formation assay; assay type: cell-based, Human; settings: HuH-7, 14 days of growth under treatment
Procedure: as §7

HepG2 [6] = test: Lactate dehydrogenase (LDH) assay, unspecific cytotoxicity; assay type: cell-based, Human; settings: HepG2, 1, 5 and 10 µM, 6 h and 24 h, vs untreated controls
Procedure: (§1) To exclude unspecific compound-induced cytotoxicity as the predominant mode of action a lactate dehydrogenase (LDH) assay was performed using the Cytotoxicity Detection Kit^PLUS LDH (Roche Diagnostics GmbH, Mannheim, Germany, Cat. No. 4744934001) as described earlier. In short, HCC cells were seeded in 96-well plates at 8 × 10^3 cells/well (HepG2) and 10 × 10^3 cells/well (HuH-7). Following incubation overnight, the cells were treated with 246TMP-3SF5 and 17-AAG at final concentrations of 1 µM, 5 µM and 10 µM, respectively, for 6 h and 24 h. The formation of the red-brownish formazan dye, which is formed proportionally to the LDH enzyme activity in the sample, was measured at 490/600 nm using the GloMax® Discover Microplate Reader (Promega, Madison, WI, USA). Unspecific cytotoxicity was determined by measuring the percentage of LDH release into the supernatant of treated cells compared to untreated controls. Measurements were performed in triplicate in n = 3 independent experiments and mean percentage changes ± SEM as compared to controls are shown.

HuH-7 [7] = test: as above; assay type: cell-based, Human; settings: HuH-7, 1, 5 and 10 µM, 6 h and 24 h, vs untreated controls
Procedure: as §1

Hsp90 in HepG2 cells = test: Western blot analysis of Hsp90 expression; assay type: cell-based, Human; settings: HepG2, 24 h treatment
Procedure: (§2) Changes in the level of protein expression were assessed through Western blotting. HepG2 and HuH-7 cells were seeded at a density of 1 × 10^6 cells/well in 100 mm petri dishes and incubated until the desired confluency. Drugs were added at given concentrations for 24 h. Untreated cells served as controls. After washing with PBS, the cells were frozen at −20 °C. Subsequently, radioimmunoprecipitation assay (RIPA) buffer mixed with one cOmplete™ Mini Protease Inhibitor tablet/10 mL (Roche Diagnostics GmbH, Mannheim, Germany) was added to lyse the cells. Following these steps, the protein levels were analyzed using the Pierce™ BCA Protein Assay Kit (Thermo Fisher Scientific, Waltham, USA) and protein levels were normalized to ensure equal protein loading of 20 µg/lane. Laemmli buffer and β-mercaptoethanol were added to the probes following denaturation at 96 °C for 10 min. Proteins were separated using SDS–PAGE and electro-transferred to polyvinylidene difluoride (PVDF) membranes. Membranes were blocked in 5% non-fat dry milk in Tris-buffered saline with 0.1% Tween-20 and incubated with primary antibody overnight at 4 °C. […] Blots of n = 3 independent experiments were generated. β-Actin expression served as a loading control and calculated values were normalized to its expression.

Hsp90 in HuH-7 cells = test: Western blot analysis of Hsp90 expression; assay type: cell-based, Human; settings: HuH-7, 24 h treatment
Procedure: as §2

Hsp70 in HepG2 cells = test: Western blot analysis of Hsp70 expression; assay type: cell-based, Human; settings: HepG2, 24 h treatment
Procedure: as §2

Hsp70 in HuH-7 cells = test: Western blot analysis of Hsp70 expression; assay type: cell-based, Human; settings: HuH-7, 24 h treatment
Procedure: as §2

[8] = test system: T. gondii tachyzoites (RH strain); design: method as in PMID 34174635; settings: positive control; cited from earlier work

Row | SMILES | IC50 (HepG2 [1]) [µM] | IC50 (HuH-7 [2]) [µM] | IC50 [3] [µM] | SI selectivity index (Vero/T. gondii) [3] | IC50 (Vero monkey kidney cells) [µM] | IC50 (L. major promastigotes; Leishmania major) [nM] | SI (Promastigotes) selectivity index (macrophages/L. major) (L. major promastigotes) | IC50 (L. major amastigotes) [µM] | SI (Amastigotes) selectivity index (macrophages/L. major) (L. major amastigotes) | IC50 (murine macrophages) [µM] | Colony formation (long-term antiproliferative effect, clonogenicity) (HepG2 [4]) | Colony formation (long-term antiproliferative effect, clonogenicity) (HuH-7 [5]) | IC50 (L. major promastigotes) [nM] | LDH release (non-specific toxicity) (HepG2 [6]) | LDH release (non-specific toxicity) (HuH-7 [7]) | Hsp90 protein expression level (Hsp90 in HepG2 cells) | Hsp90 protein expression level (Hsp90 in HuH-7 cells) | Hsp70 protein expression level (Hsp70 in HepG2 cells) | Hsp70 protein expression level (Hsp70 in HuH-7 cells) | IC50 [8] [nM]
1 | COc1ccccc1C(=O)/C=C/c1c2ccccc2cc2ccccc12 [2MeO-Anth] | > 10 | > 10 | 9.8 | 2.3 | 22.8 | 1800 | 26.6 | 33.7 | 1.5 | 48.8 | – | – | – | – | – | – | – | – | – | –
2 | C=CCNC1=C2C[C@@H](C)C[C@H](OC)[C@H](O)[C@@H](C)/C=C(\C)[C@H](OC(N)=O)[C@@H](OC)/C=C\C=C(/C)C(=O)NC(=CC1=O)C2=O [17-AAG] | 1.6 ± 0.5 | 0.4 ± 0.4 | – | – | – | – | – | – | – | – | inhibited colony formation significantly; also recorded: close to no colonies formed | inhibited colony formation significantly; also recorded: close to no colonies formed | – | – | – | – | – | – | – | –
3 | COc1ccc(C(=O)/C=C/c2cccc([N+](=O)[O-])c2)c(OC)c1 [24DMP-3NO] | > 10 | > 10 | 2.2 | 2.4 | 5.4 | < 1000 | 29.3 | 28.4 | 0.89 | 25.2 | – | – | 860 | – | – | – | – | – | – | –
4 | COc1ccc(C(=O)/C=C/c2c3ccccc3cc3ccccc23)c(OC)c1 [24DMP-Anth] | > 10 | > 10 | 7.6 | 2.9 | 22.3 | 2200 | 22.3 | 28 | 1.7 | 48.3 | – | – | – | – | – | – | – | – | – | –
5 | COc1cc(OC)c(C(=O)/C=C/c2cccc(S(F)(F)(F)(F)F)c2)c(OC)c1 [246TMP-3SF5, 2′,4′,6′-trimethoxy-3-pentafluorosulfanylchalcone] | 1.3 ± 0.2 | 2.2 ± 0.3 | 0.42 | 2.8 | 1.2 | 9200 | 3.5 | 20.3 | 1.6 | 32.1 | dose-dependent decrease in colonies formed; also recorded: close to no colonies formed | dose-dependent decrease in colonies formed; also recorded: close to no colonies formed | – | does not significantly increase LDH release | does not significantly increase LDH release | almost no changes | almost no changes | drastically increased | drastically increased | –
6 | COc1cc(OC)c(C(=O)/C=C/c2c3ccccc3cc3ccccc23)c(OC)c1 [246TMP-Anth, 2′,4′,6′-trimethoxy-9-anthracenylchalcone] | > 10 | > 10 | 5.8 | 3.4 | 19.6 | < 1000 | 21.7 | 18.8 | 0.84 | 15.8 | – | – | 730 | – | – | – | – | – | – | –
7 | O=C1C(O)=C([C@H]2CC[C@H](c3ccc(Cl)cc3)CC2)C(=O)c2ccccc21 [ATO] | – | – | – | – | – | – | – | – | – | – | – | – | – | – | – | – | – | – | – | 70
8 | CNC(=O)c1cc(Oc2ccc(NC(=O)Nc3ccc(Cl)c(C(F)(F)F)c3)cc2)ccn1 [Sorafenib, reference compound] | 4.4 ± 1 | 5.4 ± 0.6 | – | – | – | – | – | – | – | – | colony count did not differ much from the untreated controls | colony count did not differ much from the untreated controls | – | – | – | – | – | – | – | –

From publication PMC11768771, “Identification of a New Pentafluorosulfanyl-Substituted Chalcone with Activity Against Hepatoma and Human Parasites” (Pharmaceuticals, 2025)
